Test results taken from patent US6031073A, “Cyclic polypeptides comprising a thioether linkage and methods for their preparation” (La Jolla Pharmaceutical Company, priority 1997, dated 2000).
Numbered stars: 1 amine (or outer) side, 2 acyl side, 3 side chain; on linkers, the order of the positions; unused ones are H or OH. Bridge positions count the residues as written; N and C are the ends. Square brackets hold non-standard residues; d marks the D form. Peptide text beside a SMILES is read from it. Abu(4-yl) = O=C([C@H](CC[*:3])N[*:1])[*:2]; hCys = N[C@@H](CCS)C(=O)O

Legend:
[1] = target: anticardiolipin antibody (serum of patient ACA-6501); assay: competitive ELISA, binding of patient ACA-6501 serum to cardiolipin/β2-GPI coated plate; set-up: species or system human; settings: for IC50: amount of peptide that inhibited the human serum's binding by 50%, serum of patient ACA-6501 (GPL score 1500)
Description: (§1) The binding affinities of a number of the thioether cyclic polypeptides of the present invention to anticardiolipin antibody were determined by a competitive ELISA (i.e., enzyme-linked immunosorbent assay) and compared with binding affinities of the corresponding disulfide cyclic polypeptides (e.g., 3G3, 2G3, and G3).
(§2) Of 96 wells of a flat-bottom Immulon I microtiter plate (Dynatech Labs, Alexandria, Va.), 94 wells were coated with […] cardiolipin per well in 30 mL, of ethanol. The remaining two wells were used as controls and each received 30 mL, of ethanol. After overnight evaporation at 4° C., the plate was blocked for 2 hours at room temperature with 200 mL of 5% (w/v) fish gelatin in phosphate buffered saline (i.e., PBS, 0.15 M NaCl and 0.01 M Na2 HPO4 at pH 7.2). The plate was washed five times in Tris buffered saline (i.e., TBS, 0.15 M NaCl and 0.05 M Tris-HCl at pH 8.5). Then, β2 -glycoprotein I (i.e., β2 -GPI) was added as […] of 2.3% (v/v) IgG-depleted human serum (Sigma Chemical Co.) and incubated for 2 hours at room temperature.
(§3) During this incubation, peptide solutions (around 2 mg/mL) were prepared by dissolving thioether cyclic peptides in 3% fish gelatin in TBS. The serums of patient ACA-6501, who has a GPL (i.e., IgG Phospholipid) score of 1500, and patient ACA-6701, who has a GPL score of 102, were diluted about 40-fold in 3% fish gelatin in TBS-PBS (1:1). Variable amounts of each of peptides were combined with 22 mL of each of the diluted human serums and then made up to the final volume of 220 mL with 3% fish gelatin in TBS-PBS (1:1). For each peptide, at least four peptide concentrations were employed and each data point was determined in duplicate.
(§4) After 5 washes with TFBS, 100 mL of the peptide/human serum solution was added and the microplate was agitated at 40 rpm in an orbital shaker (American Scientific, Rotator V) for one hour at room temperature. The plate was washed extensively with TBS (5 times) and 100 mL of diluted (1/1000) alkaline phosphatase-conjugated goat anti-human IgG (Zymed, South San Francisco, Calif.) in 0.5% (w/v) BSA-TBS was added to each well (i.e., bovine serum albumin, BSA). The plate was then incubated for one hour at room temperature followed by addition of […]/well of PPMP solution (3 g/L phenolphthalein monophosphate plus 26.7 g/L 2-amino-2-methyl-1-propanol in water). The plate was allowed to develop at room temperature for 21 min and the reaction was stopped by adding 50 mL of 0.2 M Na2 HPO4 (Mallinckrodt) to each well. Blanks consisted of protein-coated wells that received similar treatment except human serum was not added to these wells. The plate was read at 550 nm using a microplate reader (Bio-Tek Instruments, Model EL 311).
(§5) Absorbance vs. amount of peptide added was plotted using Graph Pad Prism (Graph Pad Software, Inc.). The amount of peptide that inhibited the human serum's binding by 50%, known as IC50, was calculated from the graph at the intersection of half-maximal absorbance with amount of peptide added.

[2] = target: anticardiolipin antibody (serum of patient ACA-6701); assay: competitive ELISA, binding of patient ACA-6701 serum to cardiolipin/β2-GPI coated plate; settings: amount of peptide that inhibited the human serum's binding by 50%; serum of patient ACA-6701 (GPL score 102)
Description: as §1, §2, §3, §4, §5

Row | Compound | IC50 [1] [µM] | IC50 [2] [µM] | biological activity in comparison with the corresponding disulfide cyclic peptide ([1]; general statement on Table 1 (sera ACA-6501 and ACA-6701)) | activity relative to disulfide peptide G3 ([1]; patient ACA-6501)
1 | CC(C)C[C@@H]1NC(=O)[C@H](CCCCN)NC(=O)CNC(=O)[C@H](CC(C)C)NC(=O)[C@H](C(C)C)NC(=O)CNC(=O)[C@H](CC(C)C)NC(=O)[C@H](NC(=O)[C@@H]2CCCN2C(=O)CN)CSCC[C@@H](C(=O)N2CCC[C@H]2C(=O)NCC(=O)O)NC1=O (single isomer, unassigned) [d-2G3-METE] | 100 | 436 |  | 
2 | CC(C)C[C@@H]1NC(=O)[C@@H](NC(=O)[C@@H]2CCCN2C(=O)CN)CSCC[C@@H](C(=O)N2CCC[C@H]2C(=O)NCC(=O)O)NC(=O)[C@H](CC(C)C)NC(=O)[C@H](CCCCN)NC(=O)CNC(=O)[C@H](CC(C)C)NC(=O)[C@H](C(C)C)NC(=O)CNC1=O (single isomer, unassigned) [l-2G3-METE] | 209 | 486 |  | 
3 | CC(C)C[C@@H]1NC(=O)C(NC(=O)[C@@H]2CCCN2C(=O)CN)CSC[C@@H](C(=O)N2CCC[C@H]2C(=O)NCC(=O)O)NC(=O)[C@H](CC(C)C)NC(=O)[C@H](CCCCN)NC(=O)CNC(=O)[C@H](CC(C)C)NC(=O)[C@H](C(C)C)NC(=O)CNC1=O (stereo partly drawn) [2G3-MMTE] | > 678 | > 678 |  | 
4 | CC(C)C[C@@H]1NC(=O)C(NC(=O)[C@@H]2CCCN2C(=O)CNC(=O)[C@H](C)N)CSC[C@@H](C(=O)N2CCC[C@H]2C(=O)NCC(=O)O)NC(=O)[C@H](CC(C)C)NC(=O)[C@H](CCCCN)NC(=O)CNC(=O)[C@H](CC(C)C)NC(=O)[C@H](C(C)C)NC(=O)CNC1=O (stereo partly drawn) [3G3-MMTE] | ~1050 | ~1050 |  | 
5 | CC(C)C[C@@H]1NC(=O)[C@H](CCCCN)NC(=O)CNC(=O)[C@H](CC(C)C)NC(=O)[C@H](C(C)C)NC(=O)CNC(=O)[C@H](CC(C)C)NC(=O)[C@@H](N)CCSCC[C@@H](C(N)=O)NC1=O [G3-EETE] (H-[hCys]LGVLGKL[Abu(4-yl)]-NH2; thioether 1-9) | 89 | 40 |  | 
6 | CC(C)C[C@@H]1NC(=O)[C@H](CCCCN)NC(=O)CNC(=O)[C@H](CC(C)C)NC(=O)[C@H](C(C)C)NC(=O)CNC(=O)[C@H](CC(C)C)NC(=O)[C@@H](N)CCSC[C@@H](C(N)=O)NC1=O [G3-EMTE] (H-[Abu(4-yl)]LGVLGKLC-NH2; thioether 1-9) | 52 | 34 | more active than the disulfide peptide G3 | about twice as active as G3
7 | CC(C)C[C@@H]1NC(=O)[C@H](CCCCN)NC(=O)CNC(=O)[C@H](CC(C)C)NC(=O)[C@H](C(C)C)NC(=O)CNC(=O)[C@H](CC(C)C)NC(=O)[C@@H](N)CSCC[C@@H](C(N)=O)NC1=O [G3-METE] (H-CLGVLGKL[Abu(4-yl)]-NH2; thioether 1-9) | 104 | 36 |  | 
8 | CC(C)C[C@@H]1NC(=O)C(N)CSC[C@@H](C(N)=O)NC(=O)[C@H](CC(C)C)NC(=O)[C@H](CCCCN)NC(=O)CNC(=O)[C@H](CC(C)C)NC(=O)[C@H](C(C)C)NC(=O)CNC1=O (stereo partly drawn) [G3-MMTE] | 126 | 57 |  | 
